Consider eleven compounds from patent publication US9771366B2, “Substituted tetrahydropyrido[3′,2′:4,5]pyrrolo[1,2-a]pyrazine-2-carboxamides as RSK inhibitors” (Phoenix Molecular Designs, priority 2016, dated 2017).

The IC50 is the concentration at which inhibition is half-maximal.

A short description of data set [1]: Solubility assessment at 20 mg/ml. The note with it: for 20 mg/ml Solubility: dissolved in DMSO; for pH: 20 mg/ml solution. Type of data set: physicochemical. How it is done: Solubility is an important property for therapeutic drug candidates. Poor solubility can lead to low bioavailability resulting in suboptimal drug delivery. It can also prevent the evaluation of test agents in animals because the concentration(s) needed to achieve the desired effect cannot be achieved to poor solubility. For solubility assessments, small molecules targeting RSK were compared. For these assessments, 100 mM solutions of the compounds dissolved in DMSO were diluted in DMEM growth media (Life Technologies) supplemented with fetal bovine serum (FBS, Life Technologies) and 100 units/ml penicillin and 100 units/ml streptomycin (Life Technologies) to make 20 mg/ml solutions. Once diluted, the solutions were vortexed and examined for the formation of precipitates. […] For Compound 26, a 100 mM solution of the compound dissolved in DMSO was diluted in phosphate buffered saline (Life Technologies) to make a 20 mg/ml solution. The stock of […] was chosen because this is the upper end of what would be required to dose mice for a range of studies including MTD, PK, PD and efficacy. The pH of this solution was determined to be 2, as previously described. […] At high concentrations some RSK inhibitors were highly soluble while others were not. Compound 0 is (R)—N-(1-benzyl-1H-pyrazol-4-yl)-9-methyl-6-oxo-6,7,8,9-tetrahydropyrido[3′,2′:4,5]pyrrolo[1,2-a]pyrazine-2-carboxamide. Compound 0 was not soluble, whereas Compounds 18, 20, 21, 25 and 26 were soluble under the same conditions (Table 5).

In data set [2] the test system is CD34+ cells. Kind of data set: Colony forming unit hematopoietic stem cell assay. Type of data set: cell-based, human. The note with it: ratio of IC50 values against CD34+ cells and MDA-MB-231 cells. On the procedure:
The hematopoietic colony forming cell assay was conducted based on a protocol outlined by StemCell Technologies. […] Following the addition of CD34^+ cells isolated from human cord blood or peripheral blood (StemCell Technologies) at a final concentration of 5×10^2 cells per dish, the tubes were vortexed and allowed to stand for 5 minutes at room temperature. Next, the MethoCult mixtures were dispensed into 35 mm dishes (Corning Incorporated) through blunt end needles (StemCell Technologies) and 5 ml syringes (BD Biosciences) at a volume of 1.1 ml per dish. The medium was evenly distributed across the surface of each dish by gentle tilting and rotation. The dishes were then placed in a 100 mm culture dish (Grenier Bio-One) containing additional 35 mm dishes with sterile water to maintain humidity. The culture dish was then placed at 37° C. in a humidified incubator containing 5% CO2 for 13 days. The number of myeloid and erythroid derived colonies in both the treated and control dishes were counted and compared.

Data set [3] has as its target RSK2 (Homo sapiens (Human), UniProt P51812). Kind of data set: Radioisotope kinase assay (SignalChem), RSK2. The format is biochemical. How it is done:
The assay conditions for the RSK2 kinase target were optimized to yield acceptable enzymatic activity. In addition, the assays were optimized to give high signal-to-noise ratio.
Radioisotope assays (SignalChem) were performed for the evaluation of the kinase target profiling and all assays were performed in a designated radioactive working area. The kinase targets were RSK1, RSK2, RSK3, RSK4 and MK2.
The assay was initiated by the addition of ^33P-ATP and the reaction mixture incubated at 30° C. for 15 minutes. After the incubation period, the assay was terminated by spotting 10 μL of the reaction mixture onto Multiscreen phosphocellulose P81 plate. The Multiscreen phosphocellulose P81 plate was washed 3 times for approximately 15 minutes each in a 1% phosphoric acid solution. The radioactivity on the P81 plate was counted in the presence of scintillation fluid in a Trilux scintillation counter.
Blank controls were set up for each target kinase which included all the assay components except the addition of the appropriate substrate (which was replaced with equal volume of assay dilution buffer). The corrected activity for each target kinase was determined by removing the blank control value.

Data set [4] concerns CD274, the gene that encodes PD-L1. Kind of data set: Immuno-oncology: CD274 expression in MDA-MB-231 cells. The format is cell-based, Human. Conditions: Compound 16 2 or 4 uM, Compound 18 1, 2 or 4 uM. The source says:
(§1) A key feature of cancer is low immunogenicity. This can occur by several mechanisms that allow the cells to escape immune recognition. […] HLA-DRA is a member of MHC-II genes and CIITA is the master regulator of MHC II transcription. Thus it was surprising that CIITA, which would be expected to regulate MHC II gene expression, was not altered by RSK inhibition. […] HLA-DRA is important for immune recognition while PD-L1 is involved in immune checkpoints.

The test system of data set [5] is HLA-DRA mRNA. Kind of data set: Immuno-oncology: HLA-DRA mRNA expression. Type of data set: cell-based, Human. The note with it: MDA-MB-231 and JIMT-1 cells; Compound 16 2 or 4 uM, Compound 18 1, 2, or 4 uM.
Source text: as §1

Data set [6] concerns CIITA mRNA. Put plainly: Immuno-oncology: CIITA mRNA expression. The format is cell-based, Human. The note with it: MDA-MB-231 and JIMT-1 cells; Compound 16 2 or 4 uM, Compound 18 1, 2, or 4 uM.
Source text: as §1

Data set [7] has as its system phosphorylated Y-box binding protein-1 (YB-1) at serine 102 (P—YB-1S102). Put plainly: Immunoblotting of phosphorylated YB-1 in MDA-MB-231 cells. The note with it: MDA-MB-231, 0.01-1 uM, 96 hrs.
Description: Following desired experimental conditions, breast cancer cell lines grown and treated in 6 well plates or 100 mm culture dishes (Grenier Bio-One) were placed on ice and the supernatant from each well was removed and the cells were washed in cold PBS. Following removal of PBS, cells were exposed to radioimmunoprecipitation assay (RIPA) buffer (50 mM Tris-HCl (pH 8), 150 mM NaCl, 1% NP-40, 0.5% sodium deoxycholate, 0.1% SDS; Fisher Scientific) supplemented with 1% phosphatase inhibitor (Fisher Scientific) and 1% protease inhibitor (Fisher Scientific) for 10 minutes. Samples were transferred to eppendorf tubes, vortexed and then centrifuged at 14 000 rpm for 10 minutes. Supernatants were collected as whole cell lysates. For mouse tumour tissues, each sample was place in a 35 mm culture dish with complete RIPA lysis buffer. The samples were diced in the buffer on ice with a sterile scalpel (VWR) and the buffer and tissue were transferred to an eppendorf tube. The samples were left on ice for 10 minutes with periodic vortexing every 2 to 3 minutes. The samples were then transferred to a Qiashredder (Qiagen) and centrifuged at 14 000 rpm for 2 minutes. The flow through was transferred to a new eppendorf tube and the samples were centrifuged again at 14 000 rpm for 5 minutes. Supernatants were collected as whole cell lysates.
For the majority of experiments in this study, 30 μg of protein per well was loaded. Samples were then resolved on SDS-PAGE (polyacrylamide gel electrophoresis) using various percentages of acrylamide gels (8%-12%), depending on the proteins of interest. […] For certain immunoblots, bands of proteins of interest were scanned and band intensity ratios were determined by densitometric analysis (ImageJ). […] To assess whether cells are actively undergoing cell death, the activity of poly ADP ribose polymerase (PARP) (1:1000 CST) was also measured using the immunoblotting method.
Data set [8] in a line: Plasma and tumor levels by LC/MS in MDA-MB-231 xenograft mice. Conditions: nu/nu, mouse, oral, 100 mg/kg; for concentration at 30 min: 30 minutes after last dose. Type of data set: in vivo.

“Also recorded” adds a separate entry of the source. Counter-ions that a name gives are not always drawn. Like-named read-outs stand apart in the source and are kept apart here.

Chain of RSK2 (P51812 whole entry): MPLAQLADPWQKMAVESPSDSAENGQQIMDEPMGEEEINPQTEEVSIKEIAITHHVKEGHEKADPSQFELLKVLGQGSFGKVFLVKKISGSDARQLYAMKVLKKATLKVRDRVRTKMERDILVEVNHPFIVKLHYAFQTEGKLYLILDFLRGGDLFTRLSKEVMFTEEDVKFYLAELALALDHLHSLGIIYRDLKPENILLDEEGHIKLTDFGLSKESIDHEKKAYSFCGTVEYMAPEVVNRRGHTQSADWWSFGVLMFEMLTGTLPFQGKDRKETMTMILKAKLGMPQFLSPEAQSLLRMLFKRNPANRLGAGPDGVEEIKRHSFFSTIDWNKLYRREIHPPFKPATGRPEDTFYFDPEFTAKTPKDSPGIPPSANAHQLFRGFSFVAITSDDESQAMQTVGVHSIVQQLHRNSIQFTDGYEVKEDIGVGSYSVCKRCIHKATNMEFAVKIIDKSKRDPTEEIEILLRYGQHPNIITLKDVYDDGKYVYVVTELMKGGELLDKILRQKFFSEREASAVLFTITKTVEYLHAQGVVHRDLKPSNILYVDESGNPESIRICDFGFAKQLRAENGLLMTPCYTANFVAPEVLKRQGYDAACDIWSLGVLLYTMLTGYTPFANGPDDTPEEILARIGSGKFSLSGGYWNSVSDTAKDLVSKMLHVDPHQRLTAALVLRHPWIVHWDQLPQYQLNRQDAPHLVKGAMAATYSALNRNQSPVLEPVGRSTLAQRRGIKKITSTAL

With `C[C@@H]1CNC(=O)c2cc3ccc(C(=O)Nc4cnn(Cc5ccccc5)c4)nc3n21` [Compound 0, (R)—N-(1-benzyl-1H-pyrazol-4-yl)-9-methyl-6-oxo-6,7,8,9-tetrahydropyrido[3′,2′:4,5]pyrrolo[1,2-a]pyrazine-2-carboxamide, reference compound], the “20 mg/ml Solubility” value in data set [1] (diluted in DMEM) is recorded as “not soluble; also recorded: Precipitate”. In data set [1] (mice), the “solubility for systemic delivery / pharmacodynamics evaluation” value was “poor or nonexistent solubility”. Further, the “Therapeutic Window” value in data set [2] is 50X.
Turning to `C[C@@H]1CNC(=O)c2cc3ccc(NC(=O)c4cnn(Cc5ccccc5)c4)cc3n21` [Compound 11, (R)-1-benzyl-N-(4-methyl-1-oxo-1,2,3,4-tetrahydropyrazino[1,2-a]indol-7-yl)-1H-pyrazole-4-carboxamide], in data set [3], half-maximal inhibition (IC50) required 1380 nM.
Consider `C[C@@H]1CNC(=O)c2cc3ccc(C(=O)Nc4cnn(Cc5cccc(N)c5)c4)nc3n21` [Compound 16, (R)—N-(1-(3-aminobenzyl)-1H-pyrazol-4-yl)-9-methyl-6-oxo-6,7,8,9-tetrahydropyrido[3′,2′:4,5]pyrrolo[1,2-a]pyrazine-2-carboxamide], for which the “levels of CD274” value in data set [4] was “reduced”. The compound further registered an IC50 in data set [3] of 23 nM. Further, the “levels of HLA-DRA mRNA” value in data set [5] is “elevated”. In data set [6], the “mRNA expression of CIITA” value is “little effect”. For the same compound, in data set [2], the “Therapeutic Window” value is more than 100X. In data set [7], the “loss of P—YB-1” value is “dose dependent loss”.
Consider `C[C@@H]1CNC(=O)c2cc3ccc(C(=O)Nc4cnn(Cc5ccccc5N)c4)nc3n21` [Compound 17, (R)—N-(1-(2-aminobenzyl)-1H-pyrazol-4-yl)-9-methyl-6-oxo-6,7,8,9-tetrahydropyrido[3′,2′:4,5]pyrrolo[1,2-a]pyrazine-2-carboxamide], for which the IC50 in data set [3] turned out to be 14 nM.
In turn, `C[C@@H]1CNC(=O)c2cc3ccc(C(=O)Nc4cnn(CC5CCN(C)CC5)c4)nc3n21` [Compound 20, (R)-9-methyl-N-(1-((1-methylpiperidin-4-yl)methyl)-1H-pyrazol-4-yl)-6-oxo-6,7,8,9-tetrahydropyrido[3′,2′:4,5]pyrrolo[1,2-a]pyrazine-2-carboxamide] registered a pH in data set [1] (DMSO diluted in DMEM) of 8. The “20 mg/ml Solubility” value in data set [1] (diluted in DMEM) is listed as “Soluble”. The IC50 in data set [3] was found to be 124 nM.
As to `C[C@@H]1CNC(=O)c2cc3ccc(C(=O)Nc4ccccc4C(N)=O)nc3n21` [Compound 21, (R)—N-(2-carbamoylphenyl)-9-methyl-6-oxo-6,7,8,9-tetrahydropyrido[3′,2′:4,5]pyrrolo[1,2-a]pyrazine-2-carboxamide], the pH in data set [1] (DMSO diluted in DMEM) came out at 9. In addition, in data set [1] (diluted in DMEM), the “20 mg/ml Solubility” value is “Soluble”.
Consider `C[C@@H]1CNC(=O)c2cc3ccc(C(=O)Nc4cnn(Cc5ccc(C(F)(F)F)cc5)c4)nc3n21` [Compound 22, (R)-9-methyl-6-oxo-N-(1-(4-(trifluoromethyl)benzyl)-1H-pyrazol-4-yl)-6,7,8,9-tetrahydropyrido[3′,2′:4,5]pyrrolo[1,2-a]pyrazine-2-carboxamide], for which the “20 mg/ml Solubility” value in data set [1] (diluted in DMEM) is on record as “Precipitate”.
Still for that read-out and setting: to `C[C@@H]1CNC(=O)c2c(Cl)c3ccc(C(=O)Nc4cnn(Cc5ccccc5)c4)nc3n21` [Compound 24, (R)—N-(1-benzyl-1H-pyrazol-4-yl)-5-chloro-9-methyl-6-oxo-6,7,8,9-tetrahydropyrido[3′,2′:4,5]pyrrolo[1,2-a]pyrazine-2-carboxamide] belongs “Precipitate”.
Consider `C[C@@H]1CNC(=O)c2cc3ccc(C(=O)Nc4cnn(Cc5ccc(N)cc5)c4)nc3n21` [Compound 25, (R)—N-(1-(4-aminobenzyl)-1H-pyrazol-4-yl)-9-methyl-6-oxo-6,7,8,9-tetrahydropyrido[3′,2′:4,5]pyrrolo[1,2-a]pyrazine-2-carboxamide hydrochloride salt], for which the concentration at 30 min was found to be 35.1 µM in data set [8] (plasma, 100 mg/kg BID PO three days, read-out: plasma level, average); 7.7 µM in data set [8] (tumor, 100 mg/kg BID PO 21 days, read-out: average concentration in the tumors); 7.1 µM in data set [8] (tumor, 100 mg/kg BID PO three days, read-out: Tumor level, average). Besides, the Kp at 30 min in data set [8] (tumor/plasma, three days of treatment, read-out: tumor uptake (ratio between tumor and plasma)) is 0.2. The pH in data set [1] (DMSO diluted in DMEM, hydrochloride salt) amounted to 2. In addition, the “20 mg/ml Solubility” value in data set [1] (diluted in DMEM, hydrochloride salt) is on record as “Soluble”. Moreover, half-maximal inhibition in data set [3] (IC50) was put at 18 nM. For the same compound, the “Therapeutic Window” value in data set [2] (hydrochloride salt) was more than 100X.
For `C[C@@H]1CNC(=O)c2cc3ccc(C(=O)Nc4cnn(Cc5ccc(CN)cc5)c4)nc3n21` [Compound 26, (R)—N-(1-(4-(aminomethyl)benzyl)-1H-pyrazol-4-yl)-9-methyl-6-oxo-6,7,8,9-tetrahydropyrido[3′,2′:4,5]pyrrolo[1,2-a]pyrazine-2-carboxamide hydrochloride salt], the “pH at which the compound remained in solution” value in data set [1] (20 mg/ml in PBS after 4M NaOH was added) came to 9. Further, the pH in data set [1] (DMSO diluted in PBS, hydrochloride salt) is given as 2-9. Moreover, the “20 mg/ml Solubility” value in data set [1] (diluted in PBS, hydrochloride salt) is “Soluble”.
As for `CC(=O)O[C@H]1C(=O)[C@@]2(C)[C@H]([C@H](OC(=O)c3ccccc3)[C@]3(O)C[C@H](OC(=O)[C@H](O)[C@@H](NC(=O)c4ccccc4)c4ccccc4)C(C)=C1C3(C)C)[C@]1(OC(C)=O)CO[C@@H]1C[C@@H]2O` [Taxol, paclitaxel, reference compound], in data set [2], the “Therapeutic Window” value is given as 6.9X.
